Experimental data as given in US20030013640A1, “Integrin linked kinase modulation of leukocyte trafficking” (priority 2001, published 2003).

Tests used:
[1] = test system: neutrophils (PMN); conditions: mouse, in vivo; cited from earlier work
[2] = test system: neutrophils (PMN); test: Zymosan-induced PMN accumulation in mouse peritoneal cavity; format: in vivo
Procedure: (§1) Zymosan (an insoluble inflammogen derived from the yeast wall, Ajuebor et al. (1998) J. Leukoc. Biol. 63, 108-116) is injected i.p. in mice, control animals receive only sterile saline. Cellular influx into the peritoneal cavities is evaluated either at the 4 h time-point (for PMN) or at 24 h (for monocytes), by killing animals by CO2 exposure, and washing the cavities with 3 ml of sterile PBS supplemented with 3 mM EDTA and 25 U/ml heparin. Cells in the lavage fluids are stained in Turk's solution and differential counting is performed with a light microscope.
PMN influx ranges between 15-20 million cells per mouse, and is sensitive to anti-chemokine (i.e. antibodies to MCP-1) and anti-adhesion reagents (i.e. antibody to CD11b) as well as to more classical anti-inflammatory drugs, e.g. PAF antagonists; indomethacin, 5-lipoxygenase inhibitors, etc. The positive control is dexamethasone, which reduces zymosan-induced PMN influx with an approximate ED50 of 0.9 mg/kg s.c. (given 2 h prior to zymosan). The effects of ILK inhibitors are determined in groups pre-treated with various concentrations of ILK inhibitors, usually in systemic administration doses in the range of 10-300 mg/kg, and usually administered every 1-4 hours prior to the cytokine, and up to the time of euthanasia, (dependent on pharmacokinetics of specific ILK inhibitor).

[3] = test system: monocytes; test: Zymosan-induced monocyte accumulation in peritoneal cavity (24 h); format: in vivo; conditions: Mus musculus, sc, given 2 h prior to zymosan, 24 h time-point
Procedure: as §1
Monocyte accumulation at the 24 h time-point is in the order of 10-14 million cells per animal. The effect of known drugs on this parameter have not been well investigated, however it is sensitive to anti-chemokine therapy (i.e. antibodies to MCP-1) and to dexamethasone. The latter is the positive control with an approximate ED50 of 0.9 mg/kg s.c. (given 2 h prior to zymosan). The effects of ILK inhibitors are determined in groups pre-treated with various concentrations of ILK inhibitors, usually in systemic administration doses in the range of 10-300 mg/kg, and usually administered every 1-4 hours prior to the cytokine, and up to the 2 hours after (timing dependent on pharmacokinetics of specific ILK inhibitor).

[4] = test system: neutrophils (PMN); test: IL-1β-induced neutrophil accumulation in mouse dorsal air-pouch; format: in vivo; conditions: sc, given 2 h prior, 4 h, read-out: ED50 for inhibition of IL-1β-induced PMN migration
Procedure: Acute accumulation of neutrophils (PMN) into a specific tissue site is a hallmark of the inflammatory response, and can be reproduced in vivo in the mouse following IL-1β injection into a preformed s.c. dorsal air-pouch. This model has the advantage of a quick (maximal at 4 h) and intense (between 5 and 8 million PMN per animal) response (Perretti & Flower (1993) J. Immunol. 150:992-999).
Six-day-old air-pouches are formed on the back of mice by injection of 2.5 ml of air on day 0 and day 3. On day 6, 5 ng of murine recombinant IL-1β is injected into the air-pouch, or vehicle only, i.e. 0.5% carboxymethylcellulose in PBS. Cellular influx into the air-pouches is evaluated at the 4 h time-point, by killing animals by CO2 exposure, and washing the cavities with 2 ml of sterile PBS supplemented with 3 mM EDTA and 25 U/ml heparin. Cells in the lavage fluids are stained in Turk's solution and differential counting is done with a light microscope.
This model is not sensitive to indomethacin and BWA4C, but is sensitive to PAF antagonists, anti-adhesion molecule reagents, tachykinin NK1 antagonists, etc. The effects of ILK inhibitors are determined in groups pre-treated with various concentrations of ILK inhibitors in systemic administration doses in the range of 10-300 mg/kg, administered every 1-4 hours prior to the cytokine, and up to the time of euthanasia.

[5] = test system: monocytes; test: MCP-1-induced monocyte accumulation in peritoneal cavity; format: in vivo; conditions: sc, 0.1 mg/kg per mouse s.c. 1 h prior to MCP-1
Procedure: Monocyte chemoattractant protein-1 (MCP-1) given i.p. (1 μg) induces a selective accumulation of monocytes which is maximal at the 6 h post-injection (between 1-3 million monocytes per mouse), above the mild effect of the vehicle (0.25 ml of sterile saline) alone. After MCP-1 injection, animals are killed by CO2 exposure, and cavities washed with 3 ml of sterile PBS supplemented with 3 mM EDTA. Cells in the lavage fluids are stained in Turk's solution and differential counting is performed using a light microscope by a scientist unaware of the experimental groups. Monocyte influx is also confirmed by staining with F4/80 and FACS analysis. The effects of ILK inhibitors are determined in groups pre-treated with various concentrations of ILK inhibitor in systemic administration doses in the range of 10-300 mg/kg, administered every 1-4 hours prior to the cytokine, and up to the time of euthanasia (timing dependent on pharmacokinetics of specific ILK inhibitor). […] The positive control is dexamethasone which produces approximately 50% inhibition at the dose of 0.1 mg/kg per mouse given s.c. 1 h prior to MCP-1.

[6] = test system: leukocyte-endothelium interaction; test: Intravital microscopy of IL-1β-inflamed mouse mesenteric vascular bed; format: in vivo; conditions: 0.5 mg/kg s.c. 1 hour prior to IL-1β
Procedure: Mice are injected i.p. with 20 ng mouse recombinant IL-1β and left at liberty until the beginning of the experiment. Control animals receive sterile saline alone (1 ml per rat i.p.). Animals are anaesthetised with Inactin™, shaved on the neck and abdominal areas, and a tracheotomy is performed to facilitate breathing during the experimentation. Cautery incisions are made along the abdominal line, the mesentery is exposed and placed on a viewing plexiglass stage.
The preparation is mounted on a Zeiss Axioskop and is then transilluminated with a 12-V, 100-W halogen light source. […] A video time-date generator projects the time, date and stopwatch function onto the monitor.
Particular care is taken to assure observation of the mesenteric vascular bed exactly 2 h after injection of the cytokine. Mesenteries are superfused with thermostated (37° C.) bicarbonate-buffered solution (pH=7.4, gassed with 5% CO2/95% N2) at a rate of 2 ml/min. Three to five randomly selected post-capillary venules (diameter between 20-40 μm; length of at least 100 μm) are observed for each rat. Off-line analysis is performed to quantify the extent of cell adhesion (the number of adherent leukocytes in 100 μm length vessel wall), and leukocyte emigration (the number of cells that had emigrated out of the vessel up to 50 μm, 50 to 100 μm and 100-150 μm away from the vessel wall in parallel with 100 μm vessel segments).
IL-1β produces an intense response (>20 adherent cells per 100 μm length) that is modulated in part by endogenous PAF, ICAM-1 and the chemokine CINC. Therefore, agents that interfere with these mediators are identified using this technique. The effects of ILK inhibitors are determined in groups pre-treated with various concentrations of ILK inhibitors, in systemic administration doses in the range of 10-300 mg/kg, and administered every 1-4 hours prior to the cytokine, and up to the 2 hours after (timing dependent on pharmacokinetics of specific ILK inhibitor). Pre-treatment with ILK inhibitors is expected to result in a significant decrease in the number of leucocytes that are recruited.
Mouse mesenteric vascular bed was inflamed with interleukin-1β. The anti-inflammatory properties of KP-401-A (an ILK inhibitor) were compared to dexamethasone (positive control) as determined by intravital microscopy. […]
Cell rolling was measured by white blood cell velocity. Cell adhesion was quantified by counting, for each vessel, the number of adherent neutrophils in a 100 μm length. Leukocyte emigration from the microcirculation into the tissue was quantified by counting the number of cells that had emigrated up to 50 μm away from the wall of the 100 μm vessel segments. […]

[7] = test system: neutrophils (PMN); conditions: classical anti-inflammatory drugs; cited from earlier work

| SMILES | sensitivity of IL-1β air-pouch model to the drug [1] | ED50 ([2]; Mus musculus, Neutrophil, sc, given 2 h prior to zymosan, 4 h time-point, read-out: ED50 for reduction of zymosan-induced PMN influx) [mg/kg] | PMN Accumulation (× 10^6 cells) ± SE ([2]; dose 1.5 mg/kg s.c., 60 min prior to and 60 min following i.p. Zymosan 1 mg/mouse, measured 4 h later, mean ± SE, n = 5) | ED50 [3] [mg/kg] | ED50 [4] [mg/kg] | inhibition at 0.1 mg/kg [5] [%] | Adherent Cells (no. 100 μm) ([6]; 2 hours after IL-1β) | Emigrated Cells (no. 50 × 100 μm^2) ([6]; 2 hours after IL-1β) | Cell Flux (no. per min) ([6]; observed 2 hours after IL-1β) | Cell Rolling (VWBC) ([6]; white blood cell velocity, 2 hours after IL-1β) | sensitivity of zymosan-induced PMN influx to the drug [7] |
| --- | --- | --- | --- | --- | --- | --- | --- | --- | --- | --- | --- |
| CC(=O)N(O)C/C=C/c1cccc(Oc2ccccc2)c1 [BWA4C] | not sensitive | – | – | – | – | – | – | – | – | – | – |
| C[C@@H]1C[C@H]2[C@@H]3CCC4=CC(=O)C=C[C@]4(C)[C@@]3(F)[C@@H](O)C[C@]2(C)[C@@]1(O)C(=O)CO [dexamethasone] | – | ~0.9 | 4.0 ± 0.79 × 10^6 cells | ~0.9 | ~0.15 | ~50 | 1.4 ± 0.1 | 1.8 ± 0.3 | 7.0 ± 1.5 | 17 ± 2.5 | – |
| COc1ccc2c(c1)c(CC(=O)O)c(C)n2C(=O)c1ccc(Cl)cc1 [indomethacin] | not sensitive | – | – | – | – | – | – | – | – | – | sensitive |
